Experiment [1] addresses LIM domain kinase 1 (Homo sapiens) (UniProt P53667). Nature of the experiment: Inhibition of human LIMK1 using cofilin 1 as substrate at 1 uM in presence of 32P-ATP by Hotspot assay relative to control; values are per cent of control.
In experiment [2] the target is T1, Myotonin-protein kinase (Homo sapiens) (UniProt Q09013).
T1 sequence (whole entry): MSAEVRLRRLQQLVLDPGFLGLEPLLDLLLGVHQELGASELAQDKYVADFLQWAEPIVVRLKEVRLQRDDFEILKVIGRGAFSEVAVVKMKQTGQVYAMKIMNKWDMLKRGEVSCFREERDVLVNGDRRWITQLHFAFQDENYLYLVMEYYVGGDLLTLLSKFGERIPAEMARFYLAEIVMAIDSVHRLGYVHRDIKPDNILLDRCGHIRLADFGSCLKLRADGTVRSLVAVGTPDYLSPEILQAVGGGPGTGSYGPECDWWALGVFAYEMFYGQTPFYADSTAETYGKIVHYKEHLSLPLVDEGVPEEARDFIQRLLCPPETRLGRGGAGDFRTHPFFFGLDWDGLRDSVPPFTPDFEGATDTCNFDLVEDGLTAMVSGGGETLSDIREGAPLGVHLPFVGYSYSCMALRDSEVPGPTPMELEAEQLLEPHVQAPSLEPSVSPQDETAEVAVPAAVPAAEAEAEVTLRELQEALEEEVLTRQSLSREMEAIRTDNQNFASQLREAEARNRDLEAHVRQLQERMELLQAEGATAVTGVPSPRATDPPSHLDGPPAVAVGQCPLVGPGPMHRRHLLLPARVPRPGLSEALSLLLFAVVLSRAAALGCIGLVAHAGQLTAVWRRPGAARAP
As to the kind of experiment: Inhibition of human DMPK using KKRNRRLSVA as substrate at 1 uM in presence of 32P-ATP by Hotspot assay relative to control; values are per cent of control.

The target of experiment [3] is RAF proto-oncogene serine/threonine-protein kinase (Homo sapiens) (UniProt P04049). Nature of the experiment: Inhibition of human RAF1 using MEK1 (K97R) as substrate at 1 uM in presence of 32P-ATP by Hotspot assay relative to control; values are per cent of control.
RAF proto-oncogene serine/threonine-protein kinase (Homo sapiens), sequence (P04049 whole entry): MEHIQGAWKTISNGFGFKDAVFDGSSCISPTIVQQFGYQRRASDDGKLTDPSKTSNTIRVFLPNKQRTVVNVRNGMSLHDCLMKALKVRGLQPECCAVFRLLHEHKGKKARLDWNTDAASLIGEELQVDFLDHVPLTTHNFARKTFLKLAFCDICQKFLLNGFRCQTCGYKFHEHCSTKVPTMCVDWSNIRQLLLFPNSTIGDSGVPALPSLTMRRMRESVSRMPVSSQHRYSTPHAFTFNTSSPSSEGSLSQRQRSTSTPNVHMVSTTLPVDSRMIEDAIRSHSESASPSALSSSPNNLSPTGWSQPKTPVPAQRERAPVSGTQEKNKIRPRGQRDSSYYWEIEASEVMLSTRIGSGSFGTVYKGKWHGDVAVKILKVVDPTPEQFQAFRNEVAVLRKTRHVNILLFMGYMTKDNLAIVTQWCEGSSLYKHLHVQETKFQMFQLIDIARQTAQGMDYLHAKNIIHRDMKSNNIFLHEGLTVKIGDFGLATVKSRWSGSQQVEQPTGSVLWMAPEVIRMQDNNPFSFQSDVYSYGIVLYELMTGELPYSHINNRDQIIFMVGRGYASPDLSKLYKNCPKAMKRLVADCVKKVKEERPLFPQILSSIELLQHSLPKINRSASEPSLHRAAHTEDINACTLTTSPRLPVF
Experiment [4] deals with T2, Serine/threonine-protein kinase Sgk2 (Homo sapiens) (UniProt Q9HBY8).
T2 sequence (whole entry): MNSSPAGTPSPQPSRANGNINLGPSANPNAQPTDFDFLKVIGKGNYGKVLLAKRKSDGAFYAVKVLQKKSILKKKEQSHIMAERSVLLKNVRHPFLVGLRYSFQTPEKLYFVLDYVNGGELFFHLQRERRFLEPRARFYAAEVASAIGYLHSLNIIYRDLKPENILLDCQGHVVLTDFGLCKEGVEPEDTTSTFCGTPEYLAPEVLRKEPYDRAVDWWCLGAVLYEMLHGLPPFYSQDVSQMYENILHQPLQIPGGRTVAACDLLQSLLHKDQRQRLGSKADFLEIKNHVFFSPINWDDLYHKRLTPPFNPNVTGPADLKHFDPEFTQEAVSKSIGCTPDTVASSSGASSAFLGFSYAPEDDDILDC
Nature of the experiment: Inhibition of human SGK2 using KGSGSGRPRTSSFAEG as substrate at 1 uM in presence of 32P-ATP by Hotspot assay relative to control; values are per cent of control.

For the next experiment, the species on record is Homo sapiens. Nature of the experiment: Inhibition of human TAOK2/TAO1 using myelin basic protein as substrate at 1 uM in presence of 32P-ATP by Hotspot assay relative to control; values are per cent of control.
The target in experiment [5] is Dual specificity protein kinase CLK3 (Homo sapiens) (UniProt P49761). As to the kind of experiment: Residual activity of human CLK3 using myelin basic protein as substrate at 1 uM in presence of 32P-ATP by Hotspot assay relative to control.
Dual specificity protein kinase CLK3 (Homo sapiens), sequence (P49761 whole entry, looked up): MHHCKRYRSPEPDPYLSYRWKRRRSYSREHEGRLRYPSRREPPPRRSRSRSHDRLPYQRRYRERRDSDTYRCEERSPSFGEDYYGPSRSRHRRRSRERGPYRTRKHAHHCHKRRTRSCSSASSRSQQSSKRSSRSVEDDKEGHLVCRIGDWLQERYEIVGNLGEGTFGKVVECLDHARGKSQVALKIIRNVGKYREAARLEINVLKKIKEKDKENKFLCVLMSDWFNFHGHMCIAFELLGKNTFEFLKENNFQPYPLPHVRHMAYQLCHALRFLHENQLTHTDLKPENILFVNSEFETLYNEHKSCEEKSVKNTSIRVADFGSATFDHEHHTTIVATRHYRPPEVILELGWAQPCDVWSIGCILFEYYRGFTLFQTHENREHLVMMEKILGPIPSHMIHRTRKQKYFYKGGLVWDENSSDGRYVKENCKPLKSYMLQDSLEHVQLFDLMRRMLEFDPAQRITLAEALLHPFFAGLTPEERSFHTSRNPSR
Experiment [6] has as its target Focal adhesion kinase 1 (Homo sapiens) (UniProt Q05397). Nature of the experiment: Inhibition of human FAK/PTK2 using poly[Glu:Tyr] (4:1) as substrate at 1 uM in presence of 32P-ATP by Hotspot assay relative to control; values are per cent of control.
Experiment [7] has as its target T3, Serine/threonine-protein kinase Nek2 (Homo sapiens) (UniProt P51955).
T3 sequence (whole entry): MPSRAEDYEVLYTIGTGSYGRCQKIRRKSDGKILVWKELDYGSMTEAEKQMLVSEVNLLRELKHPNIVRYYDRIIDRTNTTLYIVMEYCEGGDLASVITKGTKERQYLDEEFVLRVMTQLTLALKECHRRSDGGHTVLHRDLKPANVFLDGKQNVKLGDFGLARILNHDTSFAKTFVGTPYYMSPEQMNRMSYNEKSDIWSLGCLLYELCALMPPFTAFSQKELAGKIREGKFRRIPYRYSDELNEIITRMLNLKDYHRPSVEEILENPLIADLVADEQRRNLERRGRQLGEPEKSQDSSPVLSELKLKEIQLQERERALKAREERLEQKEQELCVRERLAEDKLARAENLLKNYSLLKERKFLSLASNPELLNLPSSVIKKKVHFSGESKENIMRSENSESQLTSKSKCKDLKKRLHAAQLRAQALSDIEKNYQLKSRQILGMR
As to the kind of experiment: Inhibition of human NEK2 using myelin basic protein as substrate at 1 uM in presence of 32P-ATP by Hotspot assay relative to control; values are per cent of control.

Experiment [8] addresses Serine/threonine-protein kinase N2 (Homo sapiens) (UniProt Q16513). As to the kind of experiment: Inhibition of human PKN2/PRK2 using KKLNRTLSVA as substrate at 1 uM in presence of 32P-ATP by Hotspot assay relative to control; values are per cent of control.

Serine/threonine-protein kinase N2 (Homo sapiens), sequence (Q16513 whole entry, looked up): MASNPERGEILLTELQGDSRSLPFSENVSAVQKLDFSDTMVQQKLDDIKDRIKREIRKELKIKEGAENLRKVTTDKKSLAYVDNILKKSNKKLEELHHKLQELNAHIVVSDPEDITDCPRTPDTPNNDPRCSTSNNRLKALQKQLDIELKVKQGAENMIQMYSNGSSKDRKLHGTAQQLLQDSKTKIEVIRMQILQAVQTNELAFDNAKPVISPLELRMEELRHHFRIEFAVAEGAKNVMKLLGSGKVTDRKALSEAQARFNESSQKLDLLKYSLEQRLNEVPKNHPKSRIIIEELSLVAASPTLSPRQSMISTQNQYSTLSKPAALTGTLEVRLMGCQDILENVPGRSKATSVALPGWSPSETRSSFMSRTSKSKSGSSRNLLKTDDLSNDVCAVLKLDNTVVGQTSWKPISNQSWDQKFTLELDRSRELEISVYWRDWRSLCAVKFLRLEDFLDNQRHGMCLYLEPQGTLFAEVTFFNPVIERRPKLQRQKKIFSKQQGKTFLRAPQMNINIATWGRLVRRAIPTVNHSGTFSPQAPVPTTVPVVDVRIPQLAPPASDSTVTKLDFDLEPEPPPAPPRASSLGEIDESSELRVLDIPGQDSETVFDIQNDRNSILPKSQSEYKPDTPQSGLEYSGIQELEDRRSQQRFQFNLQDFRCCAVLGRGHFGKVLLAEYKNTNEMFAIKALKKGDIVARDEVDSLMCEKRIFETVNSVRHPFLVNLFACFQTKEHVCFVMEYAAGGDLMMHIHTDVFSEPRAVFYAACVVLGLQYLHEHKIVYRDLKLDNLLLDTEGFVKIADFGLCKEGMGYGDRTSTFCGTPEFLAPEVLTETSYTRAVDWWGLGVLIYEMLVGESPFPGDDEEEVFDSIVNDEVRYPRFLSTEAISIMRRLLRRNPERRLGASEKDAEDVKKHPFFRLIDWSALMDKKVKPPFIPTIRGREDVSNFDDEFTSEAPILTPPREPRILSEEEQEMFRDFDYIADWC
LIM domain kinase 1 (Homo sapiens), sequence (P53667 whole entry, looked up, the tested form may be a part): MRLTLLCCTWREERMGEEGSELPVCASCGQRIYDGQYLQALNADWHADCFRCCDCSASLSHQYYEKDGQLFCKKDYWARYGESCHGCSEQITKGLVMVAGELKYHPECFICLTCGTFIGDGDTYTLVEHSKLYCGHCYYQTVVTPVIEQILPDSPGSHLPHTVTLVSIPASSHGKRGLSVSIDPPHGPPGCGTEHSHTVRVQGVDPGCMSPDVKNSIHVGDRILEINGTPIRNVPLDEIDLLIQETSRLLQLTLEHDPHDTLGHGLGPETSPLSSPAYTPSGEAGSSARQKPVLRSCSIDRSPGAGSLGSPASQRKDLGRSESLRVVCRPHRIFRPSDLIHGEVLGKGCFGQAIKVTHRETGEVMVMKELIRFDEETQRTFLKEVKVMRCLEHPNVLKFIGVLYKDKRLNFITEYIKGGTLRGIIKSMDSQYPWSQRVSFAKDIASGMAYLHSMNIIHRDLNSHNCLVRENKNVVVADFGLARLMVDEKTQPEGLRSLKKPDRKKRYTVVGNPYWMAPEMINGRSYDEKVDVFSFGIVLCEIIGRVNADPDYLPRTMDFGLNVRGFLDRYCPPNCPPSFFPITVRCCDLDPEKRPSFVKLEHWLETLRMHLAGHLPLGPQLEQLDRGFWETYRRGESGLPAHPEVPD
Focal adhesion kinase 1 (Homo sapiens), sequence (Q05397 2-1052 limits assumed): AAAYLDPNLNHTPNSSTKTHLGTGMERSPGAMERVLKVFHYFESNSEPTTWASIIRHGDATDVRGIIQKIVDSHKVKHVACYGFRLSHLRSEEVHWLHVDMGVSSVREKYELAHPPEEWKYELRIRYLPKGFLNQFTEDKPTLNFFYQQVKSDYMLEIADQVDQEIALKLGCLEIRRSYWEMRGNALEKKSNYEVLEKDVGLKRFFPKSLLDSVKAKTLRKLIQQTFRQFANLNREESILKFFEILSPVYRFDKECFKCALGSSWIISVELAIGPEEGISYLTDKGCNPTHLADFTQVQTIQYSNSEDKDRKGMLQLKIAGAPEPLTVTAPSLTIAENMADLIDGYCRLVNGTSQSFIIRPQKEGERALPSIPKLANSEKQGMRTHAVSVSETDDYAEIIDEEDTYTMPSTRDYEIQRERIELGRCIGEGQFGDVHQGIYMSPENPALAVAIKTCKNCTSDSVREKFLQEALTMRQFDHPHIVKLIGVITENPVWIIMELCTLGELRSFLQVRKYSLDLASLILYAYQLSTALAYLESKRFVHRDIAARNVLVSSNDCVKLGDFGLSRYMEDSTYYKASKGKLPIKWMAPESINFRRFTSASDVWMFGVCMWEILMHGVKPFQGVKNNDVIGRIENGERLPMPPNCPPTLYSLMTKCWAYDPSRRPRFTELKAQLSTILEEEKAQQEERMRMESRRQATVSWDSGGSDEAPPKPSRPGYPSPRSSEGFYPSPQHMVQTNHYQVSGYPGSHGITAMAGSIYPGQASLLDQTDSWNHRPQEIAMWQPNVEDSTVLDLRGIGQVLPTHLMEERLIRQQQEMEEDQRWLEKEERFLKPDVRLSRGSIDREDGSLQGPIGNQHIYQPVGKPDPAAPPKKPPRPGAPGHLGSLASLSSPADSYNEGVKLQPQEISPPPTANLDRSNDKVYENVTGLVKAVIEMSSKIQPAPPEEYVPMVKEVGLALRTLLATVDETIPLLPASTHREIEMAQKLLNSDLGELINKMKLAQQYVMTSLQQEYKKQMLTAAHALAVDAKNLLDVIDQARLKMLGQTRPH

As to `CNC(=O)c1ccc2c(c1)ncn2-c1ccc(CC(=O)OC(C)(C)C)cc1`, the residual activity (in general, the signal under treatment as a percentage of the control signal) in experiment [1] was 72.9%; in experiment [2] it was 107%; in experiment [3] it was 91.3%; in experiment [4], 102%; in the experiment filed under Homo sapiens it was 102%; in experiment [5], 97.4%. Further, the residual activity stood at 102% in [6], 102% in [7] and 93.9% in experiment [8].
Regarding `Cc1cc(-c2cnc(N)c3c(-c4ccc5scnc5c4)csc23)n(C)n1`, the residual activity turned out to be 65.6% in [1]; 92.1% in experiment [2]; 50.5% in [3]; 87.7% in [4]; 97.1% in the experiment filed under Homo sapiens; 98.3% in experiment [5]. The values for the residual activity in [6], in experiment [7] and in experiment [8] were 97.3%, 101% and 89.8%, respectively.
As to `CC(C)S(=O)(=O)c1ccc2nccc(Nc3ccc4scnc4c3)c2c1`, the residual activity came out at 93% in [1]; 103% in [2]; 54.1% in experiment [3]; 99.9% in [4]; 93.4% in the experiment filed under Homo sapiens; 99% in [5]. The residual activity in experiment [6] amounted to 93.9%; in experiment [7], 100%; in experiment [8], 108%.

The values are drawn from ChEMBL document CHEMBL5649166, “RIP3 induces apoptosis independent of pronecrotic kinase activity” (Mol Cell, 2014).
